Test results from patent US20260158025A1, “COMPOUNDS AND COMBINATIONS THEREOF FOR TREATING NEUROLOGICAL AND PSYCHIATRIC CONDITIONS” (priority 2024, published 2026).
Entries after “also recorded” stand apart in the source; their conditions may differ. Counter-ions that a name gives are not always drawn.

Columns and labels:
[1] = Steady state pharmacokinetics after administration of the subject combination; details: for Cmax relative to the peak level of bupropion: after administration of the subject combination
[2] = Pharmacokinetics of the subject combination in moderate renal impairment
Source text: (§1) Data are GMRs and 90% CIs. References used are the matched healthy subjects for renal and hepatic impairment studies, and extensive or ultra-extensive CYP2D6 metabolizers respectively.

[3] = Effect of food on pharmacokinetics of the subject combination; type: in vivo, human; details: subject combination administered with food
[4] = Pharmacokinetics of the subject combination in CYP2D6 poor metabolizers; details: steady state, hydrobromide monohydrate
Source text: Approximately 7% to 10% of Caucasians and 3% to 8% of African Americans lack the capacity to metabolize CYP2D6 substrates and are classified as poor metabolizers.
as §1

[5] = Co-administration of the subject combination with paroxetine / strong CYP2D6 inhibitor; details: subject combination plus strong CYP2D6 inhibitor
Source text: In some embodiments, the patients are monitored for adverse reactions potentially attributable to dextromethorphan, such as somnolence and dizziness.

[6] = clinical trials; cited from earlier work
[7] = clinical trials; cited from earlier work; remark: listed apart in the source

With `C[C@H]1NC(C)(C)CO[C@]1(O)c1cccc(Cl)c1` [hydroxybupropion] the “Cmax relative to the peak level of bupropion” value [1] was “approximately 14 times”.

In the case of `COc1ccc2c(c1)[C@]13CCCC[C@@H]1[C@H](C2)N(C)CC3` [dextromethorphan, morphinan, 3-methoxy-17-methyl-, (9α, 13α, 14α), hydrobromide monohydrate], the “reduction in clearance vs matched controls with normal renal function” value ([2]; moderate renal impairment (GFR 30-60 mL/min)) is reported as 50%, the “increase in exposure vs matched controls with normal renal function” value ([2]; moderate renal impairment (GFR 30-60 mL/min), 7 subjects vs 6 controls) is reported as “approximately 2 fold” and the “increase in mean elimination half-life compared to dextromethorphan given without bupropion” value ([1]; 8 days of the subject combination, extensive metabolizers) is reported as “approximately 3 fold”. For the same compound, the “pharmacokinetics at steady state (dose proportionality)” value ([1]; co-administered with bupropion, dextromethorphan 30 to 60 mg, bupropion 75 to 150 mg) was “nonlinear pharmacokinetics”, the “change of Cmax with food” value [3] was “unchanged” and the “plasma concentrations in poor metabolizers compared with non-poor metabolizers” value [4] was “increases plasma concentrations; also recorded: generally higher”. For the same compound, the “plasma concentrations on concomitant use with a strong CYP2D6 inhibitor” value [5] was “increases plasma concentrations”.

With `C[C@H](NC(C)(C)C)[C@@H](O)c1cccc(Cl)c1` [threohydroxybupropion] the “Cmax relative to the peak level of bupropion” value [1] was “about 5 times”.

With `CC(NC(C)(C)C)C(O)c1cccc(Cl)c1` (stereo not drawn) [erythrohydroxybupropion] the “Cmax relative to the peak level of bupropion” value [1] was “approximately equal to”.

For `CN[C@]1(c2ccccc2Cl)CCCCC1=O` [esketamine, Esketamine], the “patients who developed sedation based on MOAA/S” value [6] is listed as 48% to 61, the “patients who experienced loss of consciousness (MOAA/S score of 0)” value [6] is listed as 0.3% to 0.4 and the “patients who developed dissociative or perceptual changes based on CADSS” value [7] is listed as 61% to 84.

For `CC(NC(C)(C)C)C(=O)c1cccc(Cl)c1.Cl` (racemic) [bupropion, (±)-1-(3-chlorophenyl)-2-[(1,1-dimethylethyl)amino]-1-propanone hydrochloride], the “increase in exposure vs matched controls with normal renal function” value ([2]; human, in vivo) was “approximately 2 fold” and the “reduction in clearance vs matched controls with normal renal function” value ([2]; human, in vivo) was 50%.
